Reference: US12540141B2, “Spiropyrrolidine derived antiviral agents” (priority 2020, dated 2026)

Target: SARS-CoV-2 3CL-protease (Severe acute respiratory syndrome coronavirus 2, UniProt P0DTD1)
Assay: SARS-CoV-2 3C-Like (3CL) Protease Fluorescence Assay (FRET)
Format: biochemical
Conditions: SARS-CoV-2 3CL-protease 10 nM, 30 min preincubation at RT, substrate 40 μM

For [2H]C([2H])([2H])N(C(=O)Cc1ccncc1)[C@@H](CC(C)(C)F)C(=O)N1C[C@]2(C[C@H]1C#N)C(=O)Nc1ccc(Cl)cc12 [Example 474], the IC50 was less than 100 nM.

Work on Cc1cc2cc(C(=O)N(C)[C@@H](CC(C)C)C(=O)N3C[C@]4(C[C@H]3C#N)C(=O)Nc3ccccc34)cc(OC(F)(F)F)c2nc1C [Example 238] yielded an IC50 of less than 100 nM.

CC(C)C[C@@H](C(=O)N1C[C@]2(C[C@H]1C#N)C(=O)Nc1ccccc12)N(C)C(=O)c1nc2ccccc2n1C [Example 282] showed an IC50 of 100 to 1000 nM.

In the case of COc1cccc(CN(C(=O)C(F)(F)F)[C@@H](CC(C)C)C(=O)N2C[C@]3(C[C@H]2C#N)C(=O)Nc2ccccc23)c1 [Example 430], the IC50 is reported as greater than 1000 nM.

CC(C)C[C@@H](C(=O)N1C[C@]2(C[C@H]1C#N)C(=O)Nc1ccccc12)N(C)C(=O)c1cccc2cccnc12 [Example 296] gave an IC50 of 100 to 1000 nM.

CC(C)C[C@@H](C(=O)N1C[C@]2(C[C@H]1C#N)C(=O)Nc1ccccc12)N(C)C(=O)c1nnn(C(C)(C)C)n1 [Example 356] gave an IC50 of less than 100 nM.

With CCN(CC)CCC(=O)N(C)[C@@H](CC(C)(C)F)C(=O)N1C[C@]2(C[C@H]1C#N)C(=O)Nc1ccccc12 [Example 544] the IC50 was less than 100 nM.

CC(C)C[C@@H](C(=O)N1C[C@]2(C[C@H]1C#N)C(=O)Nc1ccccc12)N(C)C(=O)c1ccc2c(Cl)ccnc2c1 [Example 271] was tested, and the IC50 was 100 to 1000 nM.

CC(C)(F)C[C@H](NC(=O)COc1ccc(F)cc1F)C(=O)N1C[C@]2(C[C@H]1C#N)C(=O)Nc1ccc(Cl)cc12 [Example 445] was tested, and the IC50 was 100 to 1000 nM.

In the case of CC(C)C[C@@H](C(=O)N1C[C@]2(C[C@H]1C#N)C(=O)Nc1ccccc12)N(C)C(=O)c1ccc2cccnc2c1 [Example 218], the IC50 is reported as 100 to 1000 nM.

With CC(C)C[C@@H](C(=O)N1C[C@]2(C[C@H]1C#N)C(=O)Nc1ccccc12)N(C)C(=O)c1cncc(F)c1 [Example 196] the IC50 was less than 100 nM.

Compound N#C[C@@H]1C[C@@]2(CN1C(=O)[C@H](CC1CC1)NC(=O)c1cccc(OC(F)(F)F)c1)C(=O)Nc1ccc(F)cc12 [Example 526] has an IC50 of less than 100 nM.

In the case of CC(C)C[C@@H](C(=O)N1C[C@]2(C[C@H]1C#N)C(=O)Nc1ccccc12)N(C)C(=O)c1cc(Cl)c2nn(C3CC3)cc2c1 [Example 316], the IC50 is reported as less than 100 nM.

In the case of CN(C(=O)c1cnn(-c2ccc(C(F)(F)F)cc2)c1)[C@@H](CC1CC1)C(=O)N1C[C@]2(C[C@H]1C#N)C(=O)Nc1ccccc12 [Example 406], the IC50 is reported as less than 100 nM.

Work on CC(C)C[C@@H](C(=O)N1C[C@]2(C[C@H]1C#N)C(=O)Nc1ccccc12)N(C)C(=O)c1cc2ccc(Cl)c(Cl)c2[nH]1 [Example 334] yielded an IC50 of less than 100 nM.

CC(C)C[C@@H](C(=O)N1C[C@]2(C[C@H]1C#N)C(=O)Nc1ccccc12)N(C)C(=O)c1cccc(OC(F)(F)F)c1 [Example 189] gave an IC50 of 100 to 1000 nM.

CN(C(=O)c1ccn(CC(F)(F)F)n1)[C@@H](Cc1ccccc1)C(=O)N1C[C@]2(C[C@H]1C#N)C(=O)Nc1ccccc12 [Example 360] showed an IC50 of less than 100 nM.

CC(C)C[C@@H](C(=O)N1C[C@]2(C[C@H]1C#N)C(=O)Nc1ccccc12)N(C)C(=O)c1ccc2c(=O)[nH]ccc2c1 [Example 276] gave an IC50 of less than 100 nM.

With CC(C)C[C@@H](C(=O)N1C[C@]2(C[C@H]1C#N)C(=O)Nc1ccccc12)N(C)C(=O)c1cc(F)c2nc(C3CC3)[nH]c2c1 [Example 340] the IC50 was 100 to 1000 nM.

CN(C(=O)c1cc2c(F)cc(F)cc2[nH]1)[C@@H](COC(C)(C)C)C(=O)N1C[C@]2(C[C@H]1C#N)C(=O)Nc1ccccc12 [Example 371] gave an IC50 of less than 100 nM.

In the case of CC(C)C[C@@H](C(=O)N1C[C@]2(C[C@H]1C#N)C(=O)Nc1ccccc12)N(C)C(=O)c1cc2ccc(C(F)(F)F)cc2[nH]1 [Example 331], the IC50 is reported as less than 100 nM.

Work on CC(C)C[C@@H](C(=O)N1C[C@]2(C[C@H]1C#N)C(=O)Nc1ccccc12)N(C)C(=O)N1Cc2cn[nH]c2C1 [Example 434] yielded an IC50 of 100 to 1000 nM.

Cc1cnc2ccc(C(=O)N[C@@H](CC(C)(C)C)C(=O)N3C[C@]4(C[C@H]3C#N)C(=O)Nc3ccccc34)cc2c1 [Example 135] was tested, and the IC50 was less than 100 nM.

With CC(C)C[C@@H](C(=O)N1C[C@]2(C[C@H]1C#N)C(=O)Nc1ccccc12)N(C)C(=O)c1nc2cc(Cl)c(Cl)cc2[nH]1 [Example 251] the IC50 was 100 to 1000 nM.
